The text below walks through data of patent publication US20260027104A1, “NOVEL NAPHTHYL AND ISOQUINOLINE SULFONAMIDE DERIVATIVES” (Hoffmann-La Roche Inc., priority 2022, published 2026).

In general, IC50 refers to the concentration at which inhibition is half-maximal. A higher IC50 goes with weaker potency.

human GPR17 short isoform, sequence (Q13304 29-367): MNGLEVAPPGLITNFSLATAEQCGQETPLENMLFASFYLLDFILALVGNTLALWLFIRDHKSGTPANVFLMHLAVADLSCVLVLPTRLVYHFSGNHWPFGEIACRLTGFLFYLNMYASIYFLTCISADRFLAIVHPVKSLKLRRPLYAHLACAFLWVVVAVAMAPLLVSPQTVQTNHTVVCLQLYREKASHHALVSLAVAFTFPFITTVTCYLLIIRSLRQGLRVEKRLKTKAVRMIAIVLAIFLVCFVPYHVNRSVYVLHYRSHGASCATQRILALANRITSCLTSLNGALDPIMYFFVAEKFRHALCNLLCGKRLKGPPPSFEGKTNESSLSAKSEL

The test deals with human GPR17 short isoform (Homo sapiens, UniProt Q13304). As to the kind of experiment: hGPR17 cAMP assay (GPR17 cAMP Assay Protocol, antagonist mode). The format is cell-based. The conditions noted are these: CHO-K1 cells stably expressing untagged human GPR17 short isoform; EC80 of agonist MDL29,951; forskolin 15 μM; 30 min, room temperature; TR-FRET cAMP readout. On the procedure:
GPR17 cAMP Assay Protocol:
CHO-K1 cells stably expressing vector containing untagged human GPR17 short isoform (Roche) were cultured at 37° C./5% CO2 in DMEM (Dulbecco's Modified Eagle Medium):F-12 (1:1) supplemented with 10% foetal bovine serum and 400 μg/ml Geneticin.
Changes in intracellular cyclic adenosine monophosphate (cAMP) levels were quantified using the Nano-TRF Detection Assay kit (Roche Diagnostics, Cat. No. 05214386001). This assay allows for direct cAMP quantification in a homogeneous solution. cAMP is detected based on time-resolved fluorescence energy transfer (TR-FRET) and competitive binding of ruthenylated cAMP and endogenous cAMP to an anti-cAMP monoclonal antibody labeled with AlexaFluor-700. The Ruthenium complex serves as the FRET donor and transfers energy to AlexaFluor-700. The FRET signal is inversely proportional to the cAMP concentration.
CHO-GPR17S cells were detached with Accutase and resuspended in assay buffer consisting of Hank's Balanced Salt Solution (HBSS), 10 mM HEPES (4-(2-hydroxyethyl) piperazine-1-ethanesulfonic acid solution) and 0.1% bovine serum albumin (pH 7.4). The cells were seeded in black 384-well plates (Corning) at a density of 10′000 cells/20 μl assay buffer until the addition of compounds.
Test antagonist compounds were serially diluted in dimethyl sulfoxide (DMSO) and spotted in 384-well plates. The compounds were then diluted in BSS buffer supplemented with an EC80 concentration of MDL29,951 (3-(2-Carboxy-4,6-dichloroindol-3-yl)propionic acid) (GPR17 agonist) plus 3-Isobutyl-1-methylxanthine (IBMX) (0.5 mM final concentration) and added to the cells at room temperature. Forskolin (15 μM final concentration) was added 5 minutes after the test compounds and the cells were incubated at room temperature for 30 minutes. The assay was stopped by adding cAMP detection mix (containing detergents for cell lysis) for 90 minutes at room temperature.
Cellular cAMP was measured using a Paradigm reader (Molecular Devices). The raw data was used to calculate the FRET signal based on the assay's P-factor as per cAMP kit instructions. The data was normalized to the maximal activity of a reference antagonist and dose response curves were fitted to the percent activity of the test compounds using a sigmoidal dose response model (Genedata Screener).
Results in the hGPR17 cAMP assay are provided for compounds of formula I in Table 1
Background: Cyclic AMP is a second messenger, typically raised through Gs and lowered through Gi signalling.
Consider `COc1nc(C2CC2)c(F)cc1NS(=O)(=O)c1cccc2nc(Cl)ccc12` [Example 4, 2-chloro-N-(6-cyclopropyl-5-fluoro-2-methoxy-3-pyridyl)quinoline-5-sulfonamide], for which the IC50 amounted to 45 nM.
In turn, `COc1nc(OCC(F)F)c(F)cc1NS(=O)(=O)c1c[nH]c(=O)c2cc(Cl)ccc12` [Example 26] gave an IC50 of 5 nM.
The compound `COc1nc(OC(F)F)c(F)cc1NS(=O)(=O)c1ccnc2cc(Cl)ccc12` [Example 48, 7-chloro-N-[6-(difluoromethoxy)-5-fluoro-2-methoxy-3-pyridyl]quinoline-4-sulfonamide] registered an IC50 of 154 nM.
On to `COc1nc(NS(=O)(=O)c2cncc3cc(Cl)ccc23)c(F)cc1OCC(F)F` [Example 14, 7-chloro-N-[5-(2,2-difluoroethoxy)-3-fluoro-6-methoxy-2-pyridyl]isoquinoline-4-sulfonamide], for which the IC50 was 415 nM.
Consider `COc1nc(OCC(F)F)c(F)cc1NS(=O)(=O)c1cc(=O)[nH]c2cc(Cl)ccc12` [Example 30, 7-chloro-N-[6-(2,2-difluoroethoxy)-5-fluoro-2-methoxy-3-pyridyl]-2-keto-1H-quinoline-4-sulfonamide], for which the IC50 came to 35 nM.
On to `COc1nc(OCC(F)F)c(F)cc1NS(=O)(=O)c1cccc2nc(C(F)F)ccc12` [Example 35, N-[6-(2,2-difluoroethoxy)-5-fluoro-2-methoxy-3-pyridyl]-2-(difluoromethyl)quinoline-5-sulfonamide], for which the IC50 stood at 214 nM.
`COc1nc(NS(=O)(=O)c2c[nH]c(=O)c3cc(Cl)ccc23)ncc1OCCF` [Example 22, 7-chloro-N-[5-(2-fluoroethoxy)-4-methoxy-pyrimidin-2-yl]-1-keto-2H-isoquinoline-4-sulfonamide] displayed an IC50 of 331 nM.
The figure for `COc1nc(OCC(F)F)c(F)cc1NS(=O)(=O)c1cccc2nc(C)ccc12` [Example 33, N-[6-(2,2-difluoroethoxy)-5-fluoro-2-methoxy-3-pyridyl]-2-methyl-quinoline-5-sulfonamide] is 11 nM.
The figure for `COc1nc(OCC(F)F)c(F)cc1NS(=O)(=O)c1cccc2ccccc12` [Example 2, N-[6-(2,2-difluoroethoxy)-5-fluoro-2-methoxy-3-pyridyl]naphthalene-1-sulfonamide] is 85 nM; for `N#CCc1cc(F)c(NS(=O)(=O)c2cccc3c(Cl)cccc23)cc1F` [Example 17, 5-chloro-N-[4-(cyanomethyl)-2,5-difluoro-phenyl]naphthalene-1-sulfonamide] it is 88 nM; for `COc1nc(OCC(F)F)c(F)cc1NS(=O)(=O)c1c[nH]c(=O)c2c(Cl)c(Cl)ccc12` [Example 39, 7,8-dichloro-N-[6-(2,2-difluoroethoxy)-5-fluoro-2-methoxy-3-pyridyl]-1-keto-2H-isoquinoline-4-sulfonamide] it is 7 nM.
The figure for `CNc1ncc(S(=O)(=O)Nc2cc(F)c(OCC(F)F)nc2OC)c2ccc(Cl)cc12` [Example 43, 7-chloro-N-[6-(2,2-difluoroethoxy)-5-fluoro-2-methoxy-3-pyridyl]-1-(methylamino)isoquinoline-4-sulfonamide] is 35 nM; for `N#CCc1cc(F)c(NS(=O)(=O)c2c[nH]c(=O)c3cc(Cl)ccc23)cc1F` [Example 21, 7-chloro-N-[4-(cyanomethyl)-2,5-difluoro-phenyl]-1-keto-2H-isoquinoline-4-sulfonamide] it is 174 nM.
Regarding `Cc1ccc(S(=O)(=O)Nc2cc(F)c(CC#N)cc2F)c2cccnc12` [Example 47, N-[4-(cyanomethyl)-2,5-difluoro-phenyl]-8-methyl-quinoline-5-sulfonamide], the IC50 came to 933 nM.
As for `COc1nc(OCC(F)F)c(F)cc1NS(=O)(=O)c1cccc2nc(Br)ccc12` [Example 54, 2-bromo-N-[6-(2,2-difluoroethoxy)-5-fluoro-2-methoxy-3-pyridyl]quinoline-5-sulfonamide], the IC50 was 9 nM.
Compound `COc1nc(OCC(F)F)c(F)cc1NS(=O)(=O)c1cccc2cc(Cl)ccc12` [Example 34, 6-chloro-N-[6-(2,2-difluoroethoxy)-5-fluoro-2-methoxy-3-pyridyl]naphthalene-1-sulfonamide] had an IC50 of 48 nM.
Turning to `COc1nc(OCC(F)F)c(F)cc1NS(=O)(=O)c1cncc2nc(Cl)ccc12` [Example 50, 2-chloro-N-[6-(2,2-difluoroethoxy)-5-fluoro-2-methoxy-3-pyridyl]-1,7-naphthyridine-5-sulfonamide], the IC50 was determined as 38 nM.
The figure for `COc1nc(OCC(F)F)c(F)cc1NS(=O)(=O)c1cccc2c1CCC(C)O2` (centres unmarked) [Example 16, N-[6-(2,2-difluoroethoxy)-5-fluoro-2-methoxy-3-pyridyl]-2-methyl-chromane-5-sulfonamide] is 31 nM.
In the case of `COc1nc(NS(=O)(=O)c2cccc3nc(Cl)ccc23)c(F)cc1OCC(F)F` [Example 9, 2-chloro-N-[5-(2,2-difluoroethoxy)-3-fluoro-6-methoxy-2-pyridyl]quinoline-5-sulfonamide] it was 495 nM; in that of `N#CCc1cc(F)c(NS(=O)(=O)c2ccnc3cc(Cl)ccc23)cc1F` [Example 53, 7-chloro-N-[4-(cyanomethyl)-2,5-difluoro-phenyl]quinoline-4-sulfonamide], 976 nM.
The figure for `N#CCc1cc(F)c(NS(=O)(=O)c2cccc3ccccc23)cc1F` [Example 1, N-(4-(cyanomethyl)-2,5-difluorophenyl)naphthalene-1-sulfonamide] is 282 nM; for `COc1nc(C2COC2)c(F)cc1NS(=O)(=O)c1cccc2nc(Cl)ccc12` [Example 7, 2-chloro-N-[5-fluoro-2-methoxy-6-(oxetan-3-yl)-3-pyridyl]quinoline-5-sulfonamide] it is 431 nM; for `COc1nc(OCC(F)F)c(F)cc1NS(=O)(=O)c1c[nH]c(=O)c2nc(Cl)ccc12` [Example 29, 2-chloro-N-[6-(2,2-difluoroethoxy)-5-fluoro-2-methoxy-3-pyridyl]-8-keto-7H-1,7-naphthyridine-5-sulfonamide] it is 30 nM.
